Reference: the OPERA property sets (Mansouri et al. 2018)
Peptide text beside a SMILES is read from it. * marks the point of attachment. NHtBu = CC(C)(C)N*

| Structure (SMILES) | logP |
| --- | --- |
| COP(=S)(OC)Oc1ccc([N+](=O)[O-])cc1Cl | 3.58 |
| CCOC(=O)Cc1ccccc1 | 2.28 |
| O=C1C=C(N2CC2)C(=O)C(N2CC2)=C1N1CC1 | -0.13 |
| CC12CCC(=O)C=C1CCC1C3CCC4(CCC(=O)O4)C3CCC12C (stereo not given) | 2.98 |
| CN(C)N=Nc1ccc(CCCC(=O)O)cc1 | 2.62 |
| O=[N+]([O-])O[C@H]1CO[C@H]2[C@@H]1OC[C@H]2O[N+](=O)[O-] | 1.31 |
| CCCCCCCI | 4.7 |
| CCCCCC(C)(C)c1ccc(C2CCCC(O)C2)c(O)c1 (stereo not given) | 5.97 |
| N#Cc1cccc2cccnc12 | 1.39 |
| Oc1cc(O)c2ccccc2c1 | 1.97 |
| FCC1CO1 (stereo not given) | -0.16 |
| N#Cc1ccncc1C#N | 0.24 |
| C/C=C/C=C/C(=O)O | 1.33 |
| C[C@]12C[C@H](O)[C@H]3[C@@H](CCC4=CC(=O)CC[C@@]43C)[C@@H]1CC[C@@H]2C(=O)CO | 1.94 |
| O=C(O)C1Cc2cc(Cl)ccc2O1 (stereo not given) | 2.11 |
| Clc1cccc(C(Cl)(Cl)Cl)n1 | 3.41 |
| OCCc1ccccn1 | 0.12 |
| CC(C)c1ccc(O)cc1 | 2.9 |
| NC(=O)Oc1ccccc1 | 1.08 |
| CCCCOC(N)=O | 0.85 |

| Structure (SMILES) | logP |
| --- | --- |
| Brc1cccc(Br)c1 | 3.75 |
| COP(=S)(OC)SCSc1ccc(Cl)cc1 | 4.82 |
| O=Cc1ccc2cccccc1-2 | 2.64 |
| CCOc1cccc(S(I)=C(N(C)C)N(C)C)c1 (stereo not given) | -0.1 |
| O=S1(=O)C=Cc2ccccc21 | 0.88 |
| Clc1cc(Cl)c2c(Cl)ccc(Cl)c2c1 | 5.76 |
| CC(=O)C(C)C | 0.84 |
| CCCN(CCC)c1c([N+](=O)[O-])cc(C(F)(F)F)cc1[N+](=O)[O-] | 5.34 |
| CCOC(=O)C(C#N)=Cc1ccccc1 | 2.43 |
| CN(C(=O)c1ccccc1)c1ccccc1 | 2.36 |
| CCOP(=O)(OCC)Oc1cc(C)nc(C(C)C)n1 | 2.07 |
| c1ccc(N(c2ccccc2)c2ccccc2)cc1 | 5.74 |
| Oc1cc(Cl)ccc1Cl | 3.06 |
| Cc1onc(-c2ccccc2)c1C(=O)NC1C(=O)N2C1SC(C)(C)C2C(=O)O (stereo not given) | 2.38 |
| COC(=O)CCC(NC(=O)c1ccc(N(C)Cc2cnc3nc(N)nc(N)c3n2)cc1)C(=O)OC (stereo not given) | 0.54 |
| CCC1(CCC(C)C)C(=O)NC(=S)NC1=O | 2.98 |
| COc1c(C)ncc(CO)c1CO | -0.1 |
| CN1CCN(C2=Nc3cc(Cl)ccc3Nc3ccccc32)CC1 | 3.23 |
| O=C(O)COc1ccc(F)cc1 | 1.64 |
| Oc1ccc(C(F)(F)F)cc1 | 2.82 |

| Structure (SMILES) | logP |
| --- | --- |
| NNP(=O)(Oc1ccccc1)Oc1ccccc1 | 1.51 |
| CC(=O)NC(C)C(=O)NC(Cc1ccccc1)C(=O)NC(C)C(=O)NC(C)(C)C (stereo not drawn) (Ac-Ala-Phe-Ala-NHtBu; configuration not given here) | 1.01 |
| COc1cc(NC(=O)NC(=N)N)ccc1C#N | 1.28 |
| NS(=O)(=O)c1cc2c(cc1Cl)N=CNS2(=O)=O | -0.24 |
| CCCCCF | 2.33 |
| CCOP(=S)(OCC)SC(CCl)N1C(=O)c2ccccc2C1=O (stereo not given) | 4.69 |
| NCCc1ccc(O)c(O)c1 | -0.98 |
| O=C(O)C=CC=Cc1ccccc1 | 3.15 |
| COCC(=O)Nc1c(I)c(C(=O)NCC(O)CO)c(I)c(C(=O)N(C)CC(O)CO)c1I (stereo not given) | -2.05 |
| Nc1ncnc2c1ncn2[C@@H]1O[C@H](CO)[C@@H](O)[C@H]1O | -1.05 |
| CC(C(=O)O)(c1ccccc1)c1ccccc1 | 2.69 |
| CCOC(=O)NC | 0.34 |
| COP(=S)(OC)Oc1cc(C)c([N+](=O)[O-])c(C)c1 | 3.89 |
| O=C(CBr)NC(CO)C(O)c1ccc([N+](=O)[O-])cc1 (stereo not given) | 0.66 |
| CNC(=O)c1[nH]nc(C)c1[N+](=O)[O-] | -0.23 |
| N#Cc1ccnc2ccccc12 | 1.98 |
| NC(=O)Cc1cccs1 | 0.33 |
| CC(=O)Nc1cnc2ccccc2n1 | 1.53 |
| NC(=O)C1CCN(CCCN2c3ccccc3Sc3ccc(Cl)cc32)CC1 | 4.44 |
| NC(Cc1c[nH]c2ccccc12)C(=O)O (racemic) | -1.05 |
